Consider 15 compounds from PubChem BioAssay (NCI).

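Protocol summary: plate cells (96-well), add compound at 5 concentrations, incubate 48 h, interpolate endpoints linearly. The concentration for 50% growth inhibition is given as GI50. TGI is the concentration that stops growth completely.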

Some test systems named below: HCT-116 colon; HL-60(TB) leukemia; OVCAR-8 ovarian; SK-MEL-5 melanoma; OVCAR-3 ovarian; TK-10 renal; SK-MEL-28 melanoma.
Assay in all cases: DTP human tumour cell line panel, 48 h

For `NCCCNCc1c2ccccc2c(CNCCCN)c2ccccc12`, the TGI – broadly, the concentration giving total growth inhibition – was 48.2 µM in the test on HCT-116 colon; 39.3 µM with HL-60(TB) leukemia; 33.9 µM in the test on OVCAR-8 ovarian; 66.6 µM in the test with SK-MEL-5 melanoma; 98.5 µM in the test with OVCAR-3 ovarian; over 100 µM in the test on TK-10 renal.
As to `CC1CCCc2c1n[nH]c2CC1CC(=O)NC(=O)C1` (stereo unspecified), the TGI in the test on HCT-116 colon, with HL-60(TB) leukemia, in the test with OVCAR-8 ovarian, in the test with SK-MEL-28 melanoma, in the test on OVCAR-3 ovarian and with TK-10 renal was over 100 µM throughout.
With `COC(=O)CCCCCOS(=O)(=O)c1ccc(C)cc1`, the TGI with HCT-116 colon, in the test on HL-60(TB) leukemia, in the test with OVCAR-8 ovarian, with SK-MEL-28 melanoma, with SK-MEL-5 melanoma and with OVCAR-3 ovarian was over 100 µM in each case. The compound also yielded a TGI with TK-10 renal of over 100 µM.
In the case of `OCC1CC2C=CCC(C2)C1` (stereo unspecified), the TGI in the test on HCT-116 colon, in the test on HL-60(TB) leukemia, with OVCAR-8 ovarian, with SK-MEL-28 melanoma, in the test with SK-MEL-5 melanoma and with OVCAR-3 ovarian was over 100 µM in each case. In the test on TK-10 renal, this compound displayed a TGI of over 100 µM.
For the compound `C[N+]1(CCNP(=S)(NCC[N+]2(C)Cc3c(ccc4c3OCO4)C3C2c2cc4c(cc2C[C@@H]3O)OCO4)NCC[N+]2(C)Cc3c(ccc4c3OCO4)C3C2c2cc4c(cc2C[C@@H]3O)OCO4)Cc2c(ccc3c2OCO3)C2C1c1cc3c(cc1C[C@H]2O)OCO3` (stereo partly specified), the GI50 (as a rule, the concentration at which growth is held to half of that of the control) is 1.43 µM in the test on HCT-116 colon; 1.02 µM with HL-60(TB) leukemia; 3.51 µM in the test with SK-MEL-28 melanoma; 1.89 µM with SK-MEL-5 melanoma; 1.68 µM in the test with OVCAR-3 ovarian; 8.2 µM with TK-10 renal. Further, the TGI in the test with OVCAR-8 ovarian was under 0.00191 µM.
Consider `CCCC[C@H](CCc1ccccc1)N(C(=O)OC)N1CCC[C@H]1COC`, for which the TGI was 28.2 µM in the test with HCT-116 colon; over 100 µM in the test on HL-60(TB) leukemia; 71.5 µM with OVCAR-8 ovarian; 38 µM with SK-MEL-28 melanoma; 32.9 µM in the test on SK-MEL-5 melanoma; 32.3 µM with OVCAR-3 ovarian. For the same compound, the TGI in the test on TK-10 renal came to 79.3 µM.
Consider `CSc1ccc(Cc2cc(C(C)(C)C)cc(C(C)(C)C)c2O)cc1`, for which the TGI in the test with HCT-116 colon came to 22.7 µM; in the test on HL-60(TB) leukemia, 25.1 µM; in the test with OVCAR-8 ovarian it was 30.7 µM; in the test with SK-MEL-28 melanoma it was 30.8 µM; with SK-MEL-5 melanoma, 28.9 µM; with TK-10 renal, 25.7 µM.
Take `COc1ccc(/C=C/c2cc(OC)c(OC)c(OC)c2)cc1OC`: the TGI in the test with HCT-116 colon, in the test on HL-60(TB) leukemia, in the test on OVCAR-8 ovarian, with SK-MEL-28 melanoma, with SK-MEL-5 melanoma and with OVCAR-3 ovarian was over 100 µM in each case. The TGI with TK-10 renal was over 100 µM.
Take `O=[N+]([O-])c1cc(I)cc(/C=N/NS(=O)(=O)c2ccc(F)cc2)c1O`: the TGI in the test with HCT-116 colon is 43.3 µM; with HL-60(TB) leukemia it was 54.4 µM; with OVCAR-8 ovarian it was 55.3 µM; with SK-MEL-28 melanoma, 81.6 µM; in the test with SK-MEL-5 melanoma, 45.2 µM; in the test on OVCAR-3 ovarian, 38.6 µM. The compound also came in with a TGI with TK-10 renal of 77.7 µM.
As to `O=C(N/C(=C\c1cccc([N+](=O)[O-])c1)c1nc2c3c(ccc2[nH]1)C(=O)c1ccccc1C3=O)c1ccccc1`, the TGI in the test on HCT-116 colon is over 100 µM; with OVCAR-8 ovarian it was over 100 µM; with SK-MEL-28 melanoma, 85.8 µM; with SK-MEL-5 melanoma, over 100 µM; in the test with OVCAR-3 ovarian, over 100 µM; in the test on TK-10 renal, 82.2 µM.
For the compound `CCCCCCCCCCNC(=S)OC`, the TGI in the test on HCT-116 colon is over 100 µM; in the test with HL-60(TB) leukemia it was 44.8 µM; with OVCAR-8 ovarian, over 100 µM; in the test on SK-MEL-28 melanoma, over 100 µM; in the test on SK-MEL-5 melanoma it was 54.1 µM; with TK-10 renal, over 100 µM.
For `Cn1nc(-c2ccccc2)c2c(/C=C/c3ccc(F)cc3)onc2c1=O`, the total growth inhibition concentration (TGI) in the test on HCT-116 colon, in the test on HL-60(TB) leukemia, in the test on OVCAR-8 ovarian, in the test with SK-MEL-28 melanoma, in the test with SK-MEL-5 melanoma and with TK-10 renal was over 100 µM in each case.
Regarding `Cn1c(=O)nc2n(-c3ccc(F)c(F)c3)c3ccccc3nc-2c1=O`, the TGI was 26.5 µM in the test on HCT-116 colon; 34.9 µM in the test with HL-60(TB) leukemia; 68.1 µM in the test with OVCAR-8 ovarian; 22.5 µM with SK-MEL-5 melanoma; 10.3 µM in the test with OVCAR-3 ovarian; over 100 µM in the test with TK-10 renal.
Take `COc1nc(NC2OC(COC(C)=O)C(OC(C)=O)C(OC(C)=O)C2OC(C)=O)c(N=C(C)C(C)=O)c(=O)n1C` (stereo unspecified): the TGI with HCT-116 colon, with HL-60(TB) leukemia, in the test on OVCAR-8 ovarian, with SK-MEL-5 melanoma, in the test on OVCAR-3 ovarian and in the test with TK-10 renal was over 100 µM throughout.
Turning to `CC(=O)N(N=O)c1ccc(N(N=O)C(C)=O)cc1`, the TGI in the test on HCT-116 colon, in the test with HL-60(TB) leukemia, with OVCAR-8 ovarian, with SK-MEL-28 melanoma, in the test with SK-MEL-5 melanoma and in the test with OVCAR-3 ovarian was over 100 µM throughout.
